The subject of this test is P. falciparum Dd2. Kind of test: Activity against the Dd2 strain of P. falciparum (SYBR Green I, 72 h). The test is classed as cell-based. As to conditions: Plasmodium falciparum, DD2, 72 h, P. falciparum Dd2, 72 h incubation. The protocol: The Dd2 strain of P. falciparum was cultured in complete medium (RPMI with L-glutamine, 4.3% heat-inactivated O-positive human serum, 2.08 mg/ml albumax, 0.013 mg/ml hypoxanthine, 1.17 mg/ml glucose, 0.18% NaHCO3, 0.031 M Hepes, 2.60 mM NaOH, and 0.043 mg/ml gentamicin) until the parasitemia reached 3-8%. Parasitemia was determined by checking at least 500 red blood cells from a Giemsa-stained blood smear. The Dd2 cultures along with tested O-positive red blood cells were centrifuged at room temperature at 2,000 rpm for 5 minutes using an Eppendorf centrifuge 5810R with an A-4-81 rotor. The medium was aspirated off. For the compound screening, a parasite dilution at a 1% parasitemia and 1.0% hematocrit was created with screening medium (RPMI with L-glutamine, 4.16 mg/ml albumax II, 0.013 mg/ml hypoxanthine, 1.73 mg/ml glucose, 0.18% NaHCO3, 0.031 M Hepes, 2.60 mM NaOH, and 0.043 mg/ml gentamicin). The suspension was gassed with 93% nitrogen, 4% carbon dioxide, and 3% oxygen and placed at 37° C. until needed. Using a liquid dispenser, 20 μl of screening medium was dispensed into 384-well, black, clear-bottom plates. With a PinTool, 100 nl of compounds dissolved in DMSO was transferred into the assay plates along with control compound (mefloquine). Next, 30 μl of the parasite suspension in screening medium was then dispensed into the assay plates such that the final parasitemia was 1% and the final hematocrit was 1.0%. Final concentration of DMSO was 0.125%. Mefloquine at a final concentration of 20 μM and DMSO at a final concentration of 0.125% were used within the assay plates to serve as background and baseline controls, respectively. The assay plates were transferred to incubators (93% nitrogen, 4% carbon dioxide, and 3% oxygen during the 72 h incubation at 37° C.). Ten microliters of detection reagent consisting of 10×SYBR Green I (Invitrogen; supplied in 10,000× concentration) in lysis buffer (20 mM Tris-HCl, 5 mM EDTA, 0.16% Saponin wt/vol, 1.6% Triton X vol/vol) was dispensed into the assay plates. For optimal staining, the assay plates were left at room temperature for 24 h in the dark. The assay plates were read by using an Envision (PerkinElmer) reader, with 505 dichroic mirrors with 485-nm excitation and 530-nm emission settings, and the plate reads were from the bottom.
By following the above-described protocol, the 50% effective concentration (EC50) for compounds 1-95 was measured against P. falciparum Dd2 and the results are shown in Table 2: […]

As to `COc1ccc(NC(=O)N2CCCCN3[C@H](CO)[C@H](c4ccc(-c5ccncc5)cc4)[C@@H]3C2)cc1` [Compound 69, (8R,9R,10S)-10-(hydroxymethyl)-N-(4-methoxyphenyl)-9-[4-(pyridin-4-yl)phenyl]-1,6-diazabicyclo[6.2.0] decane-6-carboxamide], a half-maximal effect (EC50) was put at 19500 nM.

With `O=C(NC1CCCCC1)N1CCCCN2[C@H](CO)[C@H](c3ccc(C#Cc4ccccc4)cc3)[C@@H]2C1` [Compound 44, (8R,9R,10S)-N-cyclohexyl-10-(hydroxymethyl)-9-[4-(2-phenylethynyl)phenyl]-1,6-diazabicyclo[6.2.0] decane-6-carboxamide], the EC50 came to 1100 nM.

Regarding `COc1ccc(NC(=O)N2CCCCN3C[C@H](c4ccc(C#Cc5ccccn5)cc4)[C@@H]3C2)cc1` [Compound 43, (8R,9S)-N-(4-methoxyphenyl)-9-{4-[2-(pyridin-2-yl)ethynyl]phenyl}-1,6-diazabicyclo[6.2.0] decane-6-carboxamide], the EC50 is 229 nM.

The compound `COc1ccc(NC(=O)N2CCCCN3[C@H](COCCC(=O)N4CCOCC4)[C@H](c4ccc(C#Cc5ccccc5)cc4)[C@@H]3C2)cc1` [Compound 89, (8R,9R,10S)-N-(4-methoxyphenyl)-10-((3-morpholino-3-oxopropoxy)methyl)-9-(4-(phenylethynyl)phenyl)-1,6-diazabicyclo[6.2.0] decane-6-carboxamide] came in with an EC50 of 8 nM.

Take `COc1ccc(NC(=O)N2CCCCN3[C@H](CO)C(c4ccccc4)[C@@H]3C2)cc1` (stereo partly drawn) [Compound 31, (8R,10S)-10-(hydroxymethyl)-N-(4-methoxyphenyl)-9-phenyl-1,6-diazabicyclo[6.2.0] decane-6-carboxamide]: the midpoint of the response, the EC50, lay at 1820 nM.

`COc1ccc(C#Cc2ccc([C@@H]3[C@@H](CO)N4CCCCN(C(=O)Nc5cccc(F)c5)C[C@H]34)cc2)cc1` [Compound 8, (8S,9S,10S)-N-(3-fluorophenyl)-10-(hydroxymethyl)-9-(4-((4-methoxyphenyl)ethynyl)phenyl)-1,6-diazabicyclo[6.2.0] decane-6-carboxamide] came in with an EC50 of 83 nM.

`COc1ccc(NC(=O)N2CCCCN3[C@H](CO)[C@H](c4ccc(C#Cc5ccc(F)cc5)cc4)[C@@H]3C2)cc1` [Compound 51, (8R,9R,10S)-9-{4-[2-(4-fluorophenyl)ethynyl]phenyl}-10-(hydroxymethyl)-N-(4-methoxyphenyl)-1,6-diazabicyclo[6.2.0] decane-6-carboxamide]: the EC50 came to 11 nM.

For `COc1ccc(S(=O)(=O)N2CCCCN3[C@H](CO)[C@H](c4ccc(C#Cc5ccccc5)cc4)[C@@H]3C2)cc1` [Compound 40, [(8R,9R,10S)-6-(4-methoxybenzene-sulfonyl)-9-[4-(2-phenylethynyl)phenyl]-1,6-diazabicyclo[6.2.0]decan-10-yl]methanol], the concentration for a half-maximal effect (EC50) amounted to 5160 nM.

The compound `COc1ccc(NC(=O)N2CCCCN3[C@@H](COCC(=O)O)[C@H](c4ccc(C#Cc5ccccc5)cc4)[C@@H]3C2)cc1` [Compound 85, 2-(((8R,9R,10R)-6-((4-methoxyphenyl)carbamoyl)-9-(4-(phenylethynyl)phenyl)-1,6-diazabicyclo[6.2.0]decan-10-yl)methoxy)acetic acid] had an EC50 of 0.4 nM.

Compound `O=C(Nc1ccccc1F)N1CCCCN2[C@@H](CO)[C@@H](c3ccc(C#Cc4cccnc4)cc3)[C@@H]2C1` [Compound 12] showed an EC50 of 950 nM.

Compound `O=C(Nc1ccccc1)N1CCCCN2[C@H](CO)[C@H](c3ccc(C#Cc4cccnc4)cc3)[C@@H]2C1` [Compound 2, (8R,9R,10S)-10-(hydroxymethyl)-N-phenyl-9-(4-(pyridin-3-ylethynyl)phenyl)-1,6-diazabicyclo[6.2.0] decane-6-carboxamide] gave a concentration for a half-maximal effect (EC50) of 165 nM.

In turn, `COc1ccc(NC(=O)N2CCCCCN3[C@H](CO)[C@H](c4ccc(C#Cc5ccccc5)cc4)[C@@H]3C2)cc1` [Compound 74, (9R,10R,11S)-11-(hydroxymethyl)-N-(4-methoxyphenyl)-10-[4-(2-phenylethynyl)phenyl]-1,7-diazabicyclo[7.2.0] undecane-7-carboxamide] showed an EC50 of 87 nM.

`O=C(Nc1ccccc1F)N1CCCCN2[C@H](CO)[C@H](c3ccc(C#Cc4cccnc4)cc3)[C@@H]2C1` [Compound 22, (8R,9R,10S)-N-(2-fluorophenyl)-10-(hydroxymethyl)-9-(4-(pyridin-3-ylethynyl)phenyl)-1,6-diazabicyclo[6.2.0] decane-6-carboxamide] returned an EC50 of 507 nM.

For the compound `COc1ccc(NC(=O)N2CCCCN3[C@H](CNC(C)=O)[C@H](c4ccc(C#Cc5ccccc5)cc4)[C@@H]3C2)cc1` [Compound 58, (8R,9S,10S)-10-(acetamidomethyl)-N-(4-methoxyphenyl)-9-[4-(2-phenylethynyl)phenyl]-1,6-diazabicyclo[6.2.0] decane-6-carboxamide], it took 6 nM to reach a half-maximal effect (EC50).

Turning to `COc1ccc(NC(=O)N2CCCCN3[C@H](CN)[C@H](c4ccc(C#Cc5ccccn5)cc4)[C@@H]3C2)cc1` [Compound 57, (8R,9S,10S)-10-(aminomethyl)-N-(4-methoxyphenyl)-9-{4-[2-(pyridin-2-yl)ethynyl]phenyl}-1,6-diazabicyclo[6.2.0] decane-6-carboxamide], the EC50 was determined as 98 nM.

Take `CCN(CC)C[C@@H]1[C@H](c2ccc(C#Cc3ccccc3)cc2)[C@@H]2CN(C(=O)Nc3ccc(OC)cc3)CCCCN12` [Compound 94, (8R,9S,10S)-10-((diethylamino)methyl)-N-(4-methoxyphenyl)-9-(4-(phenylethynyl)phenyl)-1,6-diazabicyclo[6.2.0] decane-6-carboxamide]: the EC50 turned out to be 14 nM.

Regarding `COc1ccccc1C#Cc1ccc([C@@H]2[C@@H](CO)N3CCCCN(CCC(F)(F)F)C[C@H]23)cc1` [Compound 15, ((8S,9S,10S)-9-(4-((2-methoxyphenyl)ethynyl)phenyl)-6-(3,3,3-trifluoropropyl)-1,6-diazabicyclo[6.2.0]decan-10-yl)methanol], the midpoint of the response, the EC50, lay at 254 nM.

Compound `COc1ccc(NC(=O)N2CCCCN3[C@H](CNCC(F)(F)F)[C@H](c4ccc(C#Cc5ccccc5)cc4)[C@@H]3C2)cc1` [Compound 90, (8R,9S,10S)-N-(4-methoxyphenyl)-9-(4-(phenylethynyl)phenyl)-10-(((2,2,2-trifluoroethyl)amino)methyl)-1,6-diazabicyclo[6.2.0] decane-6-carboxamide] had an EC50 of 228 nM.

Regarding `O=C(Nc1cccnc1)N1CCCCN2[C@H](CO)[C@H](c3ccc(C#Cc4ccccc4)cc3)[C@@H]2C1` [Compound 59, (8R,9R,10S)-10-(hydroxymethyl)-9-[4-(2-phenylethynyl)phenyl]-N-(pyridin-3-yl)-1,6-diazabicyclo[6.2.0] decane-6-carboxamide], the midpoint of the response, the EC50, lay at 2700 nM.

Consider `COc1ccc(NC(=O)N2CCCCN3[C@H](CN4CC(C)(O)C4)[C@H](c4ccc(C#Cc5ccccc5)cc4)[C@@H]3C2)cc1` [Compound 73, (8R,9S,10S)-10-[(3-hydroxy-3-methylazetidin-1-yl)methyl]-N-(4-methoxyphenyl)-9-[4-(2-phenylethynyl)phenyl]-1,6-diazabicyclo[6.2.0] decane-6-carboxamide], for which the EC50 stood at 104 nM.

In turn, `COC(=O)CCOC[C@@H]1[C@H](c2ccc(C#Cc3ccccc3)cc2)[C@@H]2CN(C(=O)Nc3ccc(OC)cc3)CCCCN12` [Compound 87, methyl 3-(((8R,9R,10S)-6-((4-methoxyphenyl)carbamoyl)-9-(4-(phenylethynyl)phenyl)-1,6-diazabicyclo[6.2.0]decan-10-yl)methoxy)propanoate] displayed an EC50 of 1 nM.

`COc1ccc(NC(=O)N2CCCCN3C[C@H](c4ccc(C#Cc5ccccc5)cc4)[C@@H]3C2)cc1` [Compound 70, (8R,9S)-N-(4-methoxyphenyl)-9-[4-(2-phenylethynyl)phenyl]-1,6-diazabicyclo[6.2.0] decane-6-carboxamide] came in with a 50% effective concentration (EC50) of 13 nM.

As to `Cc1ccc(-c2ccc([C@@H]3[C@H](CO)N4CCCCN(S(=O)(=O)c5cccc(C)c5)C[C@@H]34)cc2)cc1` [Compound 26, ((8R,9S,10R)-9-(4′-methyl-[1,1′-biphenyl]-4-yl)-6-(m-tolylsulfonyl)-1,6-diazabicyclo[6.2.0]decan-10-yl)methanol], a half-maximal response (EC50) required 955 nM.

Compound `COc1ccc(NC(=O)N2CCCCN3[C@H](CO)[C@H](c4ccc(C#Cc5cccc(F)c5)cc4)[C@@H]3C2)cc1` [Compound 38, (8R,9R,10S)-9-{4-[2-(3-fluorophenyl)ethynyl]phenyl}-10-(hydroxymethyl)-N-(4-methoxyphenyl)-1,6-diazabicyclo[6.2.0] decane-6-carboxamide] yielded a half-maximal effective concentration (EC50) of 15 nM.

These data come from patent US11325913B2, “Compounds and methods for the treatment of malaria” (THE BROAD INSTITUTE, INC., priority 2013, dated 2022).
